Results published in US20070155660A1, “Inhibition of voluntary ethanol consumption with selective melanocortin 4-receptor agonists” (priority 2003, published 2007).
Numbered stars: 1 amine (or outer) side, 2 acyl side, 3 side chain; on linkers, the order of the positions; unused ones are H or OH. Bridge positions count the residues as written; N and C are the ends. Square brackets hold non-standard residues; d marks the D form. Peptide text beside a SMILES is read from it. ξ: configuration not given here. dPhe(4-Cl) = N[C@H](Cc1ccc(Cl)cc1)C(=O)O; 2Nal = N[C@@H](Cc1ccc2ccccc2c1)C(=O)O; Suc = O=C(CCC(=O)[*:2])[*:1]; ξE = NC(CCC(=O)O)C(=O)O; ξDab = NCCC(N)C(=O)O; ξK = NCCCCC(N)C(=O)O; ξDap = NCC(N)C(=O)O; Ava = NCCCCC(=O)O; GABA = NCCCC(=O)O

How the values were obtained:
[1] = biological target: T1, MC4R (Homo sapiens, UniProt P32245); assay: Competitive binding assay, [125I]-NDP-α-MSH, CHO cell membranes; parameters: expressed in transfected cells; host or cells: Chinese hamster ovary (CHO) cells; conditions: for Selectivity Binding IC50 3R/4R: ratio of IC50 hMC-3R / hMC-4R; for Selectivity Binding IC50 5R/4R: ratio of IC50 hMC-5R / hMC-4R
Protocol: The peptides of the present invention were evaluated for […] in receptor binding assay. Crude membrane preparations were obtained from Chinese hamster ovary cells expressing human MC3, MC4, and MC5 receptors. Cells were rinsed with phosphate-buffered saline (PBS) lacking CaCl2 or MgCl2 (Life Technologies, Gaithersburg, Md., USA), and then detached with enzyme-free dissociation media (Specialty Media, Lavellette, N.J., USA). Cells were pelleted at 2800×g for 10 minutes and resuspended in membrane buffer (20 mM Tris, pH 7.2, 5 mM ethylenediaminetetraacetic acid) with 5 μg/ml leupeptin, 5 μg/ml aprotinin, 40 μg/ml bacitracin, and 25 μg/m pefabloc (Boehringer Mannheim). The cells were […] with 10 strokes by using a motor-driven Teflon-coated pestle in a glass homogenizer at low speed. The resulting cell suspension was centrifuged at 4100×g, 4° C., for 20 minutes. The pellet was resuspended in fresh membrane buffer with protease inhibitors, aliquoted, snap-frozen in liquid nitrogen, and stored at −80° C. The resulting crude membranes were titrated to determine the optimal level necessary for performing binding studies. Results
Binding reactions (total volume=[…]) contained MBB (50 mM Tris, pH 7.2, 2 mM CaCl2, 1 mM MgCl2), 0.1% bovine serum albumin, crude membranes prepared from cells expressing human MC3, MC4, or MC5 receptor, 200 pM of [125I]-NDP-α-MSH (Amersham, Arlington Heighs, Ill., USA), and increasing concentrations of unlabeled test compounds dissolved in dimethylsulfoxide (final concentration=2%). Reactions were incubated for 1 hour without shaking and then filtered through 96-well filter plates (Packard), presoaked in 1% polyethyleneimine. Filters were washed 3 times with TNE buffer (50 mM Tris, pH 7.4, 5 mM ethylenediaminetetraacetic acid, 150 mM NaCl), dried and counted by using Microscint-20 in a Topcount scintillation counter (Packard). Nonspecific binding was determined in the presence of 2 μm of unlabeled NDP-α-MSH (Peninsula Laboratories). Active peptides were evaluated in three independent experiments.
Target sequence in this assay (P32245 whole entry): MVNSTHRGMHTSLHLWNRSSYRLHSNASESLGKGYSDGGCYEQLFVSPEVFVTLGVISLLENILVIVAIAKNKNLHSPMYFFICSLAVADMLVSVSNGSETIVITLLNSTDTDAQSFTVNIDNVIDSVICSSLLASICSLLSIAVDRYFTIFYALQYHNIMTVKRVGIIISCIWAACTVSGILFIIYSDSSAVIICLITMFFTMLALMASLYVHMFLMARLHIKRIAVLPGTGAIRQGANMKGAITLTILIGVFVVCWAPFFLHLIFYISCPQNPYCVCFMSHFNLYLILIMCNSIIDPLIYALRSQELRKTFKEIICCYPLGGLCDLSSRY

[2] = biological target: T1, MC4R; assay: cAMP assay in CHO cells expressing a human melanocortin receptor; type: cell-based; parameters: expressed in transfected cells; host or cells: Chinese hamster ovary (CHO) cells; conditions: for Selectivity cAMP EC50 3R/4R: ratio of EC50 hMC-3R / hMC-4R; for Selectivity cAMP EC50 5R/4R: ratio of EC50 hMC-5R / hMC-4R
Protocol: (§1) Chinese hamster ovary cells expressing a human melanocortin receptor were rinsed with calcium-and magnesium-free PBS (Life Technologies), and detached from the tissue culture flasks by 5-minutes incubation with enzyme-free dissociation buffer (S-014-B, Specialty Media). Cells were collected by centrifugation and resuspended in Earle's balanced salt solution (Life Technologies) with addition of 10 mM 4-(2-hydroxyethyl)-1-piperazineethanesulfonic acid (Hepes) buffer, pH 7.5, 5 mM MgCl2, 1 mM glutamine, and 1 mg/ml bovine serum albumin to concentration of 1-5×10^6 cells/ml. Subsequently, cells were counted and the cell suspension was treated with the phosphodiesterase inhibitor 3-isobutyl-1-methylxanthine (to concentration of 0.6 mM).
(§2) A test compound was dissolved in dimethyl sulfoxide (DMSO, 10^−3 to 10^−8 M), diluted with buffer and 0.1 volume of the solution was added to 0.9 volumes of the cell suspension (1 to 5×10^5 cells); final concentration of DMSO was 1%. After 45 minutes at room temperature, cells were lysed by incubation at 100° C. for 5 minutes to release accumulated cAMP. Accumulation of cAMP was measured in an aliquot of the cell lysate with the Amersham (Arlington Heights, Ill.) cAMP detection assay kit (RPA556). The amount of cAMP produced in response to a tested compound was compared to the amount of cAMP produced in response to α-MSH, defined as a 100% agonist. All active peptides were characterized in three independent experiments.
Target sequence in this assay (P32245 whole entry): as above

[3] = biological target: T2, MC5R (Homo sapiens, UniProt P33032); assay: as above; type: cell-based; parameters: expressed in transfected cells; host or cells: Chinese hamster ovary (CHO) cells; conditions: @ 5 (concentration unit not given); cAMP relative to α-MSH defined as 100% agonist
Protocol: as §1, §2
Target sequence in this assay (P33032 whole entry): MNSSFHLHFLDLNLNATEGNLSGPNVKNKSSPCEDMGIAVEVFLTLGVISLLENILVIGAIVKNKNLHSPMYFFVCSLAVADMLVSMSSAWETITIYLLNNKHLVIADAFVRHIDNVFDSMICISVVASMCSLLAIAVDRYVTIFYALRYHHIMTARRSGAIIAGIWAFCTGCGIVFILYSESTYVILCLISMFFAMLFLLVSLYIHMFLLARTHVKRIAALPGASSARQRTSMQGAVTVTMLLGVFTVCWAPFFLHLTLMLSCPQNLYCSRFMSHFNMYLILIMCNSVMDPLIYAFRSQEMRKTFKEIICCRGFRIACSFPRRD

[4] = system: AA rats; conditions: MTII by central infusion; cited from earlier work
[5] = system: C57BL/6J mice; assay: Ethanol consumption following central (i.c.v.) infusion of MC4R agonist; type: in vivo; conditions: for reduction of alcohol consumption: 20% ethanol, vs aCSF
From the text: The generation of Mc3r^−/− mice has been described (Chen, S. et al., Nature Genetics (2000) 26: 97-102). Mc3r^−/− mice are born at the expected frequency and are viable and fertile. […] Studies described below utilized male and female Mc3r^−/− and/or Mc3r^+/+ mice of a C57BL/6J genetic background, 8 to 12 weeks of age at the start of experiment. Non-littermate heterozygous (Mc3r^+/−) mice were bred, resulting in Mc3r^−/− and Mc3r ^+/+ F2 littermate mice. Mice were individually housed in polypropylene cages with wood-chip bedding and had ad libitum access to standard rodent chow (Teklad, Madison, Wis.) and water throughout the experiments except where noted. The colony room was maintained at approximately 22° C. with a 12h:12h light:dark cycle. All procedures used in the present research were in compliance with the National Institute of Health guidelines, and the protocols were approved by the University of North Carolina Animal Care and Use Committee.
Naïve mice were anesthetized with a cocktail of ketamine (117 mg/kg) and xylazine (7.92 mg/kg) and surgically implanted with a 26-gauge cannula (Plastic One, Roanoke, Va.) aimed at the left-lateral ventricle using the following stereotaxic coordinates: 0.2 mm posterior to bregma, 1.0 mm lateral to the midline, and 2.3 mm ventral to the skull surface. Mice were allowed to recover for approximately 2 weeks before experimental procedures were initiated. After experimental procedures, cannula placement was verified histologically. The i.c.v. infusions were given in a 1.0 μl volume with a 5.0 μl Hamilton syringe and infused manually over a one minute period. Mice were acclimated for approximately 2 weeks to drinking from two bottles (continuous 24 hour/day access), one containing water and the other containing 20% ethanol, and body weights were recorded weekly. Following acclimation, mice were distributed to groups based on the last 4-days of baseline ethanol consumption (g/kg/day).
Mice were weighed and ethanol, water, and food were removed from their cages two hours before the beginning of the dark cycle. For the study with i.c.v. infusion of MC4R agonist, C57B1/6J mice were given infusion of either 1.0 or 3.0 μg of the MC4R-selective agonist, cyclo(NH—CH2—CH2—CO-His-D-Phe-Arg-Trp-Glu)-NH2 (Compound A, Phoenix Pharmaceuticals, Inc., Belmont, Calif.) dissolved in aCSF (ns=7 and 8, respectively) or an equal volume of aCSF (n=10) one hour before the beginning of the dark cycle. The 20% ethanol solution, water, and food were returned immediately before the dark cycle and consumption measures were recorded 4 hours and 24 hours later. One-way (drug) ANOVAs were used to assess consumption of 20% ethanol following i.c.v. infusion of MC4R agonist or aCSF.

[6] = biological target: T2, MC5R; conditions: cited from earlier work
Target sequence in this assay (P33032 whole entry, species assumed): as the sequence (P33032 whole entry) above

[7] = biological target: T1, MC4R; conditions: cited from earlier work
Target sequence in this assay (P32245 whole entry, species assumed): as the sequence (P32245 whole entry) above

Compound	Selectivity Binding IC50 3R/4R [1]	Selectivity Binding IC50 5R/4R [1]	Selectivity cAMP EC50 3R/4R [2]	Selectivity cAMP EC50 5R/4R [2]	also measured
N=C(N)NCCC[C@@H]1NC(=O)[C@@H](Cc2ccccc2)NC(=O)[C@H](Cc2c[nH]cn2)NC(=O)CCC(=O)NCCCCC(C(N)=O)NC(=O)[C@H](Cc2c[nH]c3ccccc23)NC1=O (stereo partly shown) [Example 1] (H[dF]RW[ξK]-NH2; linker N-5 via Suc)	16.7	124	33	357	
N=C(N)NCCC[C@@H]1NC(=O)[C@@H](Cc2ccccc2)NC(=O)[C@H](Cc2c[nH]cn2)NC(=O)CCC(=O)NCCC(C(N)=O)NC(=O)[C@H](Cc2c[nH]c3ccccc23)NC1=O (stereo partly shown) [Example 2] (H[dF]RW[ξDab]-NH2; linker N-5 via Suc)	51.3	205	83	758	
N=C(N)NCCC[C@@H]1NC(=O)[C@@H](Cc2ccccc2)NC(=O)[C@H](Cc2c[nH]cn2)NC(=O)CCC(=O)NCC(C(N)=O)NC(=O)[C@H](Cc2c[nH]c3ccccc23)NC1=O (stereo partly shown) [Example 3] (H[dF]RW[ξDap]-NH2; linker N-5 via Suc)	22.5	50.7	17.8		cAMP Assay hMC-5R, % @ 5 [3]: 12% @ 5
N=C(N)NCCC[C@@H]1NC(=O)[C@@H](Cc2ccc(Cl)cc2)NC(=O)[C@H](Cc2c[nH]cn2)NC(=O)CCC(=O)NCCCCC(C(N)=O)NC(=O)[C@H](Cc2c[nH]c3ccccc23)NC1=O (stereo partly shown) [Example 4] (H[dPhe(4-Cl)]RW[ξK]-NH2; linker N-5 via Suc)	10	54	54	229.7	
N=C(N)NCCC[C@@H]1NC(=O)[C@@H](Cc2ccccc2)NC(=O)[C@H](Cc2c[nH]cn2)NC(=O)CCC(=O)NCCCCC(C(N)=O)NC(=O)[C@H](Cc2ccc3ccccc3c2)NC1=O (stereo partly shown) [Example 5] (H[dF]R[2Nal][ξK]-NH2; linker N-5 via Suc)	33.85	1538	97.3	1351.3	
N=C(N)NCCC[C@@H]1NC(=O)[C@@H](Cc2ccccc2)NC(=O)[C@H](Cc2c[nH]cn2)NC(=O)CCCCNC(=O)CCC(C(N)=O)NC(=O)[C@H](Cc2c[nH]c3ccccc23)NC1=O (stereo partly shown) [Example 6] ([Ava]H[dF]RW[ξE]-NH2; lactam N-6)	48	750	70.4	703.7	
N=C(N)NCCC[C@@H]1NC(=O)[C@@H](Cc2ccccc2)NC(=O)[C@H](Cc2c[nH]cn2)NC(=O)CCCNC(=O)CCC(C(N)=O)NC(=O)[C@H](Cc2c[nH]c3ccccc23)NC1=O (stereo partly shown) [Example 7] ([GABA]H[dF]RW[ξE]-NH2; lactam N-6)	44	121.9	54.39	877	
N=C(N)NCCC[C@@H]1NC(=O)[C@@H](Cc2ccccc2)NC(=O)[C@H](Cc2c[nH]cn2)NC(=O)CNC(=O)CCC(C(N)=O)NC(=O)[C@H](Cc2c[nH]c3ccccc23)NC1=O (stereo partly shown) [Example 9] (GH[dF]RW[ξE]-NH2; lactam N-6)	3.45	3.45	62.86		cAMP Assay hMC-5R, % @ 5 [3]: 15% @ 5
MTII					effect on voluntary ethanol drinking [4]: significantly reduces voluntary ethanol drinking
cyclo(NH—CH2—CH2—CO-His-D-Phe-Arg-Trp-Glu)-NH2 (FRWE; cyclic with beta-alanine linker, His, C-terminal amide; printed: Phe-Arg-Trp-Glu) [Compound A]					reduction of alcohol consumption ([5]; 1.0 μg i.c.v.): 67%; reduction of alcohol consumption ([5]; 3.0 μg i.c.v.): 86%; effect on ethanol drinking ([5]; C57BL/6J mice): significant reduction of ethanol drinking; less alcohol consumed than untreated controls ([5]; C57BL/6J mice, dose not given): up to 86%; binding and activation of MC5R [6]: extremely weak binding and activation of MC5R; selectivity for MC4R over MC3R [7]: 90 fold; selectivity for MC4R over MC5R [7]: greater than 2000 fold
